Test results from ChEMBL document CHEMBL1201862, “PubChem BioAssay data set” (2004).
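All cell lines were grown in 96-well plates and treated with compound for 48 hours. GI50: concentration for 50% inhibition of growth.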 The source made the active and inactive calls. Cut-off read from the data, not from the text of the source: active = GI50 up to about 1.1 µM and inactive = higher.

How the values were obtained:
Test in all cases: growth of human tumour cells (NCI), 48 h
[1] = test system: HCT-116
[2] = test system: EKVX
[3] = test system: SK-OV-3
[4] = test system: SNB-75
[5] = test system: MOLT-4
[6] = test system: OVCAR-4
[7] = test system: NCI-H460
[8] = test system: UACC-257
[9] = test system: IGROV-1
[10] = test system: CAKI-1
[11] = test system: NCI-H23
[12] = test system: SF-295
[13] = test system: SN12C
[14] = test system: HOP-62
[15] = test system: OVCAR-3
[16] = test system: SK-MEL-28
[17] = test system: NCI/ADR-RES
[18] = test system: HL-60
[19] = test system: T47D
[20] = test system: DU-145
[21] = test system: CCRF-CEM
[22] = test system: TK-10
[23] = test system: MDA-N
[24] = test system: UACC-62
[25] = test system: HCT-15
[26] = test system: UO-31
[27] = test system: SK-MEL-5
[28] = test system: MDA-MB-231
[29] = test system: M14
[30] = test system: SNB-19
[31] = test system: Hs-578T
[32] = test system: SF-539
[33] = test system: HT-29
[34] = test system: 786-0
[35] = test system: OVCAR-8
[36] = test system: MCF7
[37] = test system: KM12
[38] = test system: A549
[39] = test system: OVCAR-5
[40] = test system: COLO 205
[41] = test system: PC-3
[42] = test system: K562
[43] = test system: SW-620
[44] = test system: U-251
[45] = test system: MDA-MB-435
[46] = test system: HOP-92
[47] = test system: Malme-3M
[48] = test system: ACHN
[49] = test system: RXF 393
[50] = test system: NCI-H226
[51] = test system: NCI-H522
[52] = test system: SK-MEL-2
[53] = test system: RPMI-8226
[54] = test system: A498
[55] = test system: SF-268
[56] = test system: HCC 2998
[57] = test system: LOX IMVI

C=C1C(=O)O[C@@H]2/C=C(C)/C=C\[C@@H]3O[C@@]3(C)C[C@@H](O)C12 (some centres not stated)
GI50 [1]: 8.13 µM (inactive) | GI50 [2]: 3.89 µM (inactive) | GI50 [3]: 54 µM (inactive) | GI50 [4]: 44.3 µM (inactive) | GI50 [5]: 5.14 µM (inactive) | GI50 [6]: 16.3 µM (inactive) | GI50 [7]: 28.9 µM (inactive) | GI50 [8]: 11.8 µM (inactive) | GI50 [9]: 13 µM (inactive) | GI50 [10]: 8.91 µM (inactive) | GI50 [11]: 13.2 µM (inactive) | GI50 [12]: 49.7 µM (inactive) | GI50 [13]: 13.4 µM (inactive) | GI50 [14]: 36.1 µM (inactive) | GI50 [15]: 14.1 µM (inactive) | GI50 [16]: 19.9 µM (inactive) | GI50 [17]: 4.51 µM (inactive) | GI50 [18]: 2.54 µM (inactive) | GI50 [19]: 7.19 µM (inactive) | GI50 [20]: 3.63 µM (inactive) | GI50 [21]: 1.66 µM (inactive) | GI50 [22]: 3.81 µM (inactive) | GI50 [23]: 13.2 µM (inactive) | GI50 [24]: 12.9 µM (inactive) | GI50 [25]: 6.27 µM | GI50 [26]: 12.4 µM (inactive) | GI50 [27]: 14.6 µM (inactive) | GI50 [28]: > 10 µM (inactive) | GI50 [29]: 18.3 µM (inactive) | GI50 [30]: 17.5 µM (inactive) | GI50 [31]: 39.2 µM (inactive) | GI50 [32]: 7.73 µM (inactive) | GI50 [33]: 10 µM (inactive) | GI50 [34]: 8.69 µM (inactive) | GI50 [35]: 17.4 µM (inactive) | GI50 [36]: 4.4 µM (inactive) | GI50 [37]: 15.5 µM (inactive) | GI50 [38]: 47.5 µM (inactive) | GI50 [39]: 33.2 µM (inactive) | GI50 [40]: 5.2 µM (inactive) | GI50 [41]: 24.5 µM (inactive) | GI50 [42]: 3.5 µM (inactive) | GI50 [43]: 4.02 µM (inactive) | GI50 [44]: 17.8 µM (inactive) | GI50 [45]: 18 µM (inactive) | GI50 [46]: 5.98 µM (inactive) | GI50 [47]: 12.7 µM (inactive) | GI50 [48]: 5.24 µM (inactive) | GI50 [49]: 18.7 µM (inactive) | GI50 [50]: 9.1 µM (inactive) | GI50 [51]: 4.23 µM (inactive) | GI50 [52]: 30.8 µM (inactive) | GI50 [53]: 3.74 µM (inactive) | GI50 [54]: 15.8 µM (inactive) | GI50 [55]: 26.4 µM (inactive) | GI50 [56]: 18.9 µM (inactive) | GI50 [57]: 7.1 µM (inactive)
